# Results reported in the supplement of paper PMC10307832.
# Compound: CC1CC(=O)N(C2=CN=C(N=C2N1C3CCCC3)NC4=C(C=C(C=C4)C(=O)NC5CCN(CC5)C)OC)C [NPK76-II-72-1] + Nc1nc2[nH]cc(CCc3ccc(C(=O)N[C@@H](CCC(=O)O)C(=O)O)cc3)c2c(=O)[nH]1 [Pemetrexed] (partner 0.2 µM)
# Assay: relative viability (nuclei count vs DMSO), 5 days (fraction); higher = more cells survive
# Details: first compound 0.1 µM
# Procedure, shortened: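 Five library-drug doses in √10 steps were combined with a fixed anchor-drug dose, or a single drug was given alone, by pin tool to lung cancer cell lines in 1536-well plates the day after seeding. Nuclei were stained and counted after 5 days. Relative viability is the nuclei count in treated wells over that in vehicle wells, taken as the median of duplicate plates.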
row,Cell Line,relative viability
1,SK-MES-1,0.989
2,H3255,0.604
3,COR-L23,0.195
4,COR-L 105,0.992
5,LOU-NH91,0.381
6,ChaGo-K-1,0.261
7,NCI-H2170,0.269
8,HCC-44,0.613
9,SW 900,0.493
10,NCI-H1648,0.702
11,NCI-H1395,0.972
12,NCI-H1792,0.627
13,NCI-H1793,0.92
14,NCI-H1563,0.839
15,NCI-H1944,0.664
16,NCI-H358,0.184

# Same assay, conditions: first compound 0.3162 µM
row,Cell Line,relative viability
1,NCI-H1650,0.399
2,NCI-H1993,0.566
3,SW 1573,0.849
4,NCI-H838,0.237
5,LCLC-103H,0.472
6,NCI-H520,0.65
7,NCI-H2126,0.672
8,EMC-BAC-2,0.451
9,NCI-H2085,0.915
10,HCC-366,0.138
11,NCI-H1666,0.78
12,NCI-H596,0.482
13,LK-2,0.235
14,NCI-H2087,0.661
15,NCI-H2342,0.584
16,SK-MES-1,1.01
17,H3255,0.446
18,COR-L23,0.193
19,COR-L 105,1.02
20,LOU-NH91,0.44
21,ChaGo-K-1,0.246
22,NCI-H2170,0.245
23,HCC-44,0.619
24,SW 900,0.463
25,NCI-H1648,0.739
26,NCI-H1395,0.856
27,NCI-H1792,0.636
28,NCI-H1793,0.806
29,NCI-H1563,0.604
30,NCI-H1944,0.571

# Same assay, conditions: first compound 1 µM
row,Cell Line,relative viability
1,NCI-H522,0.797
2,NCI-H1650,0.358
3,NCI-H1993,0.644
4,SW 1573,0.824
5,NCI-H838,0.245
6,LCLC-103H,0.442
7,NCI-H520,0.825
8,NCI-H2126,0.736
9,EMC-BAC-2,0.453
10,NCI-H2085,0.974
11,HCC-366,0.143
12,NCI-H1666,0.917
13,NCI-H596,0.462
14,LK-2,0.271
15,NCI-H2087,0.63
16,NCI-H2342,0.772

row,Cell Line,relative viability
1,SK-MES-1,1.12
2,H3255,0.602
3,COR-L23,0.211
4,COR-L 105,1.12
5,LOU-NH91,0.35
6,ChaGo-K-1,0.257
7,NCI-H2170,0.283
8,HCC-44,0.684
9,SW 900,0.493
10,NCI-H1648,0.732
11,NCI-H1395,0.881
12,NCI-H1792,1.06
13,NCI-H1793,0.981
14,NCI-H1563,0.767
15,NCI-H1944,0.734
16,NCI-H358,0.21
